Columns and labels:
[1] = system: dog; conditions: Subchronic oral toxicity in nonrodent, beagle, Gavage/Intubation, dose end: 92 day, group: systemic
[2] = system: dog; conditions: Sub-acute repeat dose toxicity, beagle, Oral, Gavage/Intubation, dose end: 14 day, group: systemic
[3] = system: rat; conditions: Fertility (Segment I), sprague dawley, Oral, Gavage/Intubation, dose end: 1 generation, group: parental
[4] = system: rabbit; conditions: Sub-acute repeat dose toxicity, new zealand white, Oral, Gavage/Intubation, dose end: 5 day, group: systemic
[5] = system: rat; conditions: Fertility (Segment I); sprague dawley; Oral; Gavage/Intubation; dose end: 1 generation; group: parental; systemic / in life observation / body weight / body weight gain + systemic / in life observation / clinical signs / anogenital staining
[6] = system: rat; conditions: Subchronic oral toxicity in rodents, sprague dawley, Gavage/Intubation, dose end: 90 day, group: systemic
[7] = system: rat; conditions: Sub-acute repeat dose toxicity, sprague dawley, Oral, Gavage/Intubation, dose end: 14 day, group: systemic
[8] = system: rat; conditions: Subchronic oral toxicity in rodents, fischer, Gavage/Intubation, dose end: 13 week, group: systemic
[9] = system: mouse; conditions: Carcinogenicity, b6c3f1, Oral, Gavage/Intubation, dose end: 2 year, group: systemic
[10] = system: rat; conditions: Carcinogenicity, fischer, Oral, Gavage/Intubation, dose end: 2 year, group: systemic
[11] = system: mouse; conditions: Subchronic oral toxicity in rodents, b6c3f1, Gavage/Intubation, dose end: 13 week, group: systemic
[12] = system: dog; conditions: Chronic toxicity, beagle, Oral, Feed, dose end: 52 week, group: systemic
[13] = system: rat; conditions: Subchronic oral toxicity in rodents, sprague dawley, Feed, dose end: 90 day, group: systemic, systemic / clinical chemistry / cytochrome p450, nos / cytochrome p450, nos + systemic / in life observation / body weight / body weight …
[14] = system: mouse; conditions: Subchronic oral toxicity in rodents, cd1, Feed, dose end: 90 day, group: systemic, systemic / organ weight / liver / absolute + systemic / organ weight / liver / relative to body weight + systemic / organ weight / liver / …
[15] = system: rat; conditions: Combined chronic toxicity/carcinogenicity, sprague dawley, Oral, Feed, dose end: 23 month, group: systemic
[16] = system: rabbit; conditions: Prenatal developmental toxicity study, other, Oral, Gavage/Intubation, dose end: 19 GD
[17] = system: mouse; conditions: Carcinogenicity, cd1, Oral, Feed, dose end: 18 month, group: systemic
[18] = system: dog; conditions: Subchronic oral toxicity in nonrodent, beagle, Feed, dose end: 90 day, group: systemic, systemic / hematology / erythrocyte (rbc) count differential / erythrocyte (rbc) + systemic / hematology / hematocrit (hct) / hematocrit (…
[19] = system: rat; conditions: Multigenerational reproductive toxicity study, other, Oral, Feed, dose end: 2 generation
[20] = system: rat; conditions: Prenatal developmental toxicity study, sprague dawley, Oral, Gavage/Intubation, dose end: 16 GD
[21] = systemic / clinical chemistry / albumin / albumin + systemic / in life observation / clinical signs / erythema + systemic / clinical …
[22] = systemic / clinical chemistry / [other] / [other] + systemic / clinical chemistry / hepatic mixed function oxidase (mfo) assay / hepatic …
[23] = systemic / in life observation / clinical signs / abnormal feces
[24] = systemic / in life observation / clinical signs / anogenital staining + systemic / in life observation / clinical signs / salivation
[25] = systemic / in life observation / body weight / body weight + systemic / in life observation / clinical signs / abnormal feces + systemic / …
[26] = systemic / in life observation / mortality / mortality + systemic / in life observation / body weight / body weight + systemic / in life …
[27] = systemic / in life observation / clinical signs / salivation + systemic / pathology microscopic / bone / proliferation
[28] = systemic / in life observation / clinical signs / salivation + systemic / pathology microscopic / bone / proliferation + systemic / …
[29] = systemic / clinical chemistry / [other] / [other] + systemic / clinical chemistry / cytochrome p450, nos / cytochrome p450, nos + systemic…
[30] = systemic / in life observation / clinical signs / salivation
[31] = systemic / in life observation / mortality / mortality + systemic / pathology microscopic / brain / degeneration + systemic / pathology …
[32] = systemic / pathology microscopic / stomach / hyperplasia
[33] = systemic / pathology microscopic / stomach / papilloma + systemic / pathology microscopic / stomach / hyperplasia
[34] = systemic / pathology microscopic / spleen / leukemia mononuclear
[35] = systemic / pathology microscopic / spleen / leukemia mononuclear + systemic / pathology microscopic / stomach / papilloma + systemic / …
[36] = systemic / in life observation / mortality / mortality + systemic / in life observation / body weight / body weight + systemic / pathology …
[37] = systemic / in life observation / body weight / body weight gain + systemic / organ weight / thyroid gland / absolute + systemic / organ …
[38] = systemic / hematology / erythrocyte (rbc) count differential / erythrocyte (rbc) + systemic / hematology / hematocrit (hct) / hematocrit (…
[39] = group: developmental, systemic / in life observation / body weight / fetal weight
[40] = group: maternal, reproductive / reproductive performance / resorptions / resorptions + systemic / in life observation / body weight / body weight gain + …
[41] = systemic / pathology microscopic / liver / adenoma
[42] = systemic / pathology microscopic / liver / adenoma + systemic / hematology / platelet / platelet + systemic / in life observation / body …
[43] = group: offspring, systemic / in life observation / body weight / offspring (pup) weight + systemic / in life observation / body weight / offspring (pup) …
[44] = group: parental, systemic / in life observation / body weight / body weight + systemic / in life observation / body weight / body weight gain + systemic / in…
[45] = group: developmental, developmental / developmental malformation / bone / delayed ossification + developmental / developmental malformation / bone / short
[46] = group: maternal, systemic / in life observation / clinical signs / salivation
[47] = group: maternal, systemic / in life observation / clinical signs / salivation + systemic / in life observation / body weight / body weight gain + systemic / …

O=C(NO)C1(NS(=O)(=O)c2ccc(Oc3ccc(F)cc3)cc2)CCOCC1
NEL ([1]; systemic / clinical chemistry / albumin / albumin + systemic / in life observation / clinical signs / erythema): 10 mg/kg/day | LOAEL [1, 21]: > 400 mg/kg/day | NOAEL [1, 21]: ≥ 400 mg/kg/day | LEL ([1]; systemic / in life observation / clinical signs / erythema + systemic / clinical chemistry / albumin / albumin + systemic / clinical …): 100 mg/kg/day | LOAEL [2, 22]: > 400 mg/kg/day | NOAEL [2, 22]: ≥ 400 mg/kg/day | LEL [2, 23]: 10 mg/kg/day | NEL [2, 23]: < 10 mg/kg/day | LEL ([3]; systemic / in life observation / clinical signs / anogenital staining): 50 mg/kg/day | LOAEL [3, 24]: > 1000 mg/kg/day | NEL [3, 24]: 10 mg/kg/day | NOAEL [3, 24]: ≥ 1000 mg/kg/day | LEL [4, 25]: 60 mg/kg/day | NEL [4, 25]: < 60 mg/kg/day | LOAEL [4, 26]: > 600 mg/kg/day | NOAEL [4, 26]: ≥ 600 mg/kg/day | LEL [5]: 1000 mg/kg/day | LOAEL [5]: > 1000 mg/kg/day | NEL [5]: 50 mg/kg/day | NOAEL [5]: ≥ 1000 mg/kg/day | LEL [6, 27]: 10 mg/kg/day | NEL [6, 27]: < 10 mg/kg/day | LOAEL [6, 28]: > 1000 mg/kg/day | NOAEL [6, 28]: ≥ 1000 mg/kg/day | LOAEL [7, 29]: > 1000 mg/kg/day | NOAEL [7, 29]: ≥ 1000 mg/kg/day | LEL [7, 30]: 50 mg/kg/day | NEL ([7]; systemic / in life observation / clinical signs / salivation + systemic / in life observation / clinical signs / urine staining - perineum…): 10 mg/kg/day

O=Cc1ccccc1 [Benzaldehyde]
LEL ([8]; systemic / in life observation / mortality / mortality): 400 mg/kg/day | LOAEL [8, 31]: > 800 mg/kg/day | NEL [8, 31]: 200 mg/kg/day | NOAEL [8, 31]: ≥ 800 mg/kg/day | LOAEL [9, 32]: > 400 mg/kg/day | NOAEL [9, 32]: ≥ 400 mg/kg/day | LEL [9, 33]: 300 mg/kg/day | NEL [9, 33]: < 300 mg/kg/day | LEL [10, 34]: 200 mg/kg/day | NEL [10, 34]: < 200 mg/kg/day | LOAEL [10, 35]: > 400 mg/kg/day | NOAEL [10, 35]: ≥ 400 mg/kg/day | NEL ([11]; systemic / in life observation / body weight / body weight + systemic / in life observation / mortality / mortality + systemic / pathology …): 300 mg/kg/day | LEL ([11]; systemic / in life observation / body weight / body weight + systemic / pathology microscopic / kidney / degeneration): 600 mg/kg/day | LOAEL [11, 36]: > 1200 mg/kg/day | NOAEL [11, 36]: ≥ 1200 mg/kg/day

COc1cc(OC)nc(Sc2cccc(Cl)c2C(=O)[O-])n1.[Na+] [Pyrithiobac-sodium]
LOAEL [12, 37]: 580 mg/kg/day | NOAEL [12, 37]: 143 mg/kg/day | LEL [12, 30]: 2.8 mg/kg/day | NEL [12, 30]: < 2.8 mg/kg/day | LEL [13]: 31.8 mg/kg/day | LOAEL [13]: 31.8 mg/kg/day | NEL [13]: 3.25 mg/kg/day | NOAEL [13]: 3.25 mg/kg/day | LEL [14]: 263 mg/kg/day | LOAEL [14]: 263 mg/kg/day | NEL [14]: 83.1 mg/kg/day | NOAEL [14]: 83.1 mg/kg/day | LEL ([15]; systemic / clinical chemistry / sodium / sodium): 1.36 mg/kg/day | NEL ([15]; systemic / clinical chemistry / sodium / sodium + systemic / pathology microscopic / kidney / adenoma + systemic / in life observation / …): 0.274 mg/kg/day | LOAEL [15, 38]: 200 mg/kg/day | NOAEL [15, 38]: 58.7 mg/kg/day | LEL [16, 39]: 1000 mg/kg/day | LOAEL [16, 39]: 1000 mg/kg/day | NEL [16, 39]: 300 mg/kg/day | NOAEL [16, 39]: 300 mg/kg/day | LEL [16, 40]: 1000 mg/kg/day | LOAEL [16, 40]: 1000 mg/kg/day | NEL [16, 40]: 300 mg/kg/day | NOAEL [16, 40]: 300 mg/kg/day | LEL [17, 41]: 21.4 mg/kg/day | LOAEL [17, 41]: 21.4 mg/kg/day | NEL [17, 42]: 1.43 mg/kg/day | NOAEL [17, 42]: 1.43 mg/kg/day | LEL [18]: 626 mg/kg/day | LOAEL [18]: 626 mg/kg/day | NEL [18]: 165 mg/kg/day | NOAEL [18]: 165 mg/kg/day | LOAEL ([19]; group: offspring, systemic / in life observation / body weight / offspring (pup) weight): 614 mg/kg/day | LEL [19, 43]: 614 mg/kg/day | NEL [19, 43]: 119 mg/kg/day | NOAEL [19, 43]: 119 mg/kg/day | LOAEL [19, 44]: 439 mg/kg/day | NOAEL [19, 44]: 85.6 mg/kg/day | LEL ([19]; group: parental, systemic / in life observation / food consumption / food efficiency): 119 mg/kg/day | NEL ([19]; group: parental, systemic / in life observation / food consumption / food efficiency + systemic / in life observation / body weight / body weight + systemic…): 1.93 mg/kg/day | LEL [20, 45]: 1800 mg/kg/day | LOAEL [20, 45]: 1800 mg/kg/day | NEL [20, 45]: 600 mg/kg/day | NOAEL [20, 45]: 600 mg/kg/day | LEL [20, 46]: 200 mg/kg/day | LOAEL [20, 46]: 200 mg/kg/day | NEL [20, 47]: 30 mg/kg/day | NOAEL [20, 47]: 30 mg/kg/day

— EPA's ToxRefDB 2
